Results: PMC9157191, “The ex vivo pharmacology of HIV-1 antiretrovirals differs between macaques and humans” (iScience, 2022)

Experiments:
[1] = Drug concentrations in human colorectal tissue explants (LC-MS/MS); format: in vitro ADME; details: for AUC3h-15d / Cmax: Human colorectal explants, intracellular
[2] = Drug concentrations in Rhesus macaque colorectal tissue explants (LC-MS/MS); format: in vitro ADME, Rhesus macaque (Macaca mulatta); details: for AUC3h–15d / Cmax: Rh. macaque colorectal explants, intracellular
[3] = Drug concentrations in human ecto-cervical tissue explants (LC-MS/MS); details: human ecto-cervical explants; harvesting schedule of the assay
[4] = Drug concentrations in Rhesus macaque ecto-cervical tissue explants (LC-MS/MS); format: in vitro ADME, Rhesus macaque (Macaca mulatta); details: NHP ecto-cervical explants; harvesting schedule of the assay
[5] = Drug concentrations in Rhesus macaque vaginal tissue explants (LC-MS/MS); format: in vitro ADME, Rhesus macaque (Macaca mulatta); details: for AUC3h–15d / Cmax: Rh. macaque vaginal explants, intracellular
[6] = test system: HIV-1BaL; test: microbe, parasite or virus in culture; format: cell-based; details: Human cervical explants
[7] = test system: RT-SHIV; test: tissue or blood; format: cell-based; details: for p27 AUC3-15: Rhesus macaque colorectal explants
[8] = test system: HIV-1YU.2 M184V; test: microbe, parasite or virus in culture; format: cell-based; details: Human colorectal explants
[9] = test system: HIV-1YU.2 K65RM184V; test: microbe, parasite or virus in culture; format: cell-based; details: Human colorectal explants;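 on p24 AUC3-15: high arm above the IC50 and low arm below the IC50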
[10] = test system: SIVmac32H K65RM184V; test: microbe, parasite or virus in culture; format: cell-based; details: for p27 AUC3-15: Rhesus macaque colorectal explants
[11] = test system: HIV-1/SIV/SHIV isolates; format: cell-based
[12] = test system: HIV-1YU.2 L313T/I321V and V314T/I321V; format: cell-based
[13] = test system: HIV-1BaL; test: microbe, parasite or virus in culture; format: cell-based; details: Human colorectal explants
[14] = test system: RT-SHIV; test: tissue or blood; format: cell-based; details: for p27 AUC3-15: Rhesus macaque vaginal explants
[15] = test system: HIV-1YU.2; test: microbe, parasite or virus in culture; format: cell-based; details: Human colorectal explants
[16] = test system: SIVmac32H; test: microbe, parasite or virus in culture; format: cell-based; details: for p27 AUC3-15: Rhesus macaque vaginal explants
[17] = test system: SIVmac32H K65RM184V; test: microbe, parasite or virus in culture; format: cell-based; details: for p27 AUC3-15: Rhesus macaque vaginal explants
[18] = test system: SIVmac32H; test: microbe, parasite or virus in culture; format: cell-based; details: for p27 AUC3-15: Rhesus macaque cervical explants
[19] = test system: HIV-1YU.2 K65R; test: microbe, parasite or virus in culture; format: cell-based; details: Human colorectal explants
[20] = test system: SIVmac32H K65RM184V; test: microbe, parasite or virus in culture; format: cell-based; details: for p27 AUC3-15: Rhesus macaque cervical explants
[21] = test system: SIVmac32H; test: microbe, parasite or virus in culture; format: cell-based; details: for p27 AUC3-15: Rhesus macaque colorectal explants
[22] = Comb. gel, High [ ]: TFV 70 µM + MVC […]
[23] = Comb. gel, Low [ ]: TFV 7 µM + MVC […]
[24] = Single gel, High [ ]: TFV 70 µM
[25] = high concentration: TFV 70 µM, MVC […], or TFV 70 µM + MVC […]
[26] = low concentration: TFV 7 µM, MVC […], or TFV 7 µM + MVC […]
[27] = NHP colorectal explants, day 15

## CC(Cn1cnc2c(N)ncnc21)OCP(=O)(O)OP(=O)(O)OP(=O)(O)O (stereo in doubt) [TFVdp]
[1]; [22]
  AUC3h-15d: 82.53 fmol·days/mg
  Cmax: 20.07 fmol/mg
[1]; [23]
  AUC3h-15d: 41.21 fmol·days/mg
  Cmax: 8.36 fmol/mg
[1]; [24]
  AUC3h-15d: 98.95 fmol·days/mg
  Cmax: 22.41 fmol/mg
[1]; Single gel, Low [ ]: TFV 7 µM
  AUC3h-15d: 35.29 fmol·days/mg
  Cmax: 8.36 fmol/mg
[1]; colorectal explants
  difference in TFVdp concentrations between NHP and humans: No significant differences
[2]; [22]
  AUC3h–15d: 148.40 fmol·days/mg
  Cmax: 29.12 fmol/mg
[2]; [23]
  AUC3h–15d: 107.96 fmol·days/mg
  Cmax: 24.43 fmol/mg
[2]; [24]
  AUC3h–15d: 176.28 fmol·days/mg
  Cmax: 41.93 fmol/mg
[2]; Single gel, Low [ ]: TFV 7 µM
  AUC3h–15d: 164.03 fmol·days/mg
  Cmax: 41.47 fmol/mg
[2]; colorectal explants
  persistence of metabolite: still detected post-dose: up to 3 days
[3]
  TFVdp detection: neither detected
[4]
  TFVdp detection: neither detected
[5]; NHP vaginal Cmax lower than in colorectal explants
  Cmax fold increase: 1.6 fold
[5]; [22]
  AUC3h–15d: 96.03 fmol·days/mg
  Cmax: 12.81 fmol/mg
[5]; [23]
  AUC3h–15d: 54.08 fmol·days/mg
  Cmax: 7.21 fmol/mg
[5]; [24]
  AUC3h–15d: 134.18 fmol·days/mg
  Cmax: 17.89 fmol/mg
[5]; Single gel, Low [ ]: TFV 7 µM
  AUC3h–15d: 46.22 fmol·days/mg
  Cmax: 6.16 fmol/mg
[5]; vaginal tissue
  persistence of metabolite: detected post-dose: 3 h

## Maraviroc [MVC]
[6]; day 15
  IC50: 2850 ± 490 nM
[6]; [25]
  p24 AUC3-15: 1.32 ± 0.36 µgxd/ml
[6]; [26]
  p24 AUC3-15: 2.61 ± 1.35 µgxd/ml
[7]; [27]
  IC50: 2320 ± 780 nM
[7]; [25]
  p27 AUC3-15: 2.85 ± 2.01 µgxd/ml
[7]; [26]
  p27 AUC3-15: 5.25 ± 3.12 µgxd/ml
[8]; day 15
  IC50: 1240 ± 1880 nM
[8]; [25]
  p24 AUC3-15: 0.26 ± 0.13 µgxd/ml
[8]; [26]
  p24 AUC3-15: 0.70 ± 0.11 µgxd/ml
[9]; day 15
  IC50: 1430 ± 980 nM
[9]; [25]
  p24 AUC3-15: 0.82 ± 0.09 µgxd/ml
[9]; [26]
  p24 AUC3-15: 1.60 ± 0.38 µgxd/ml
[10]; [27]
  IC50: 1980 ± 1070 nM
[10]; [25]
  p27 AUC3-15: 1.33 ± 0.22 µgxd/ml
[10]; [26]
  p27 AUC3-15: 1.65 ± 0.32 µgxd/ml
[11]
  potency against the mutant isolates: no impact
[12]
  inhibitory potency against Env-mutated HIV-1YU.2: no reduction of inhibitory potency
[13]; day 15
  IC50: 1260 ± 490 nM
[13]; [25]
  p24 AUC3-15: 0.59 ± 0.33 µgxd/ml
[13]; [26]
  p24 AUC3-15: 2.68 ± 1.79 µgxd/ml
[14]; NHP vaginal explants, day 15
  IC50: 2560 ± 1590 nM
[14]; [25]
  p27 AUC3-15: 1.27 ± 0.28 µgxd/ml
[14]; [26]
  p27 AUC3-15: 1.54 ± 0.31 µgxd/ml
[15]; day 15
  IC50: 1150 ± 840 nM
[15]; [25]
  p24 AUC3-15: 1.60 ± 0.57 µgxd/ml
[15]; [26]
  p24 AUC3-15: 9.15 ± 5.28 µgxd/ml
[16]; NHP vaginal explants, day 15
  IC50: 3320 ± 3190 nM
[16]; [25]
  p27 AUC3-15: 1.26 ± 0.24 µgxd/ml
[16]; [26]
  p27 AUC3-15: 1.45 ± 0.28 µgxd/ml
[17]; NHP vaginal explants, day 15
  IC50: 3310 ± 1680 nM
[17]; [25]
  p27 AUC3-15: 1.33 ± 0.30 µgxd/ml
[17]; [26]
  p27 AUC3-15: 1.55 ± 0.28 µgxd/ml
[18]; NHP cervical explants, day 15
  IC50: 2740 ± 1180 nM
[18]; [25]
  p27 AUC3-15: 1.27 ± 0.35 µgxd/ml
[18]; [26]
  p27 AUC3-15: 1.42 ± 0.44 µgxd/ml
[19]; day 15
  IC50: 2770 ± 1120 nM
[19]; [25]
  p24 AUC3-15: 0.36 ± 0.05 µgxd/ml
[19]; [26]
  p24 AUC3-15: 0.76 ± 0.10 µgxd/ml
[20]; NHP cervical explants, day 15
  IC50: 4570 ± 2920 nM
[20]; [25]
  p27 AUC3-15: 1.37 ± 0.30 µgxd/ml
[20]; [26]
  p27 AUC3-15: 1.62 ± 0.33 µgxd/ml
[21]; [27]
  IC50: 1960 ± 1300 nM
[21]; [25]
  p27 AUC3-15: 2.42 ± 0.53 µgxd/ml
[21]; [26]
  p27 AUC3-15: 6.12 ± 1.35 µgxd/ml
